The source of these data is PubChem BioAssay (NCI).

Some test systems named below: HCT-15 colon; A498 renal; HL-60(TB) leukemia; EKVX NSCLC; SF-268 CNS; COLO 205 colon; CAKI-1 renal; MALME-3M melanoma; SNB-19 CNS.
Common to all, as to assay: NCI anticancer screen, dose series, 48 h

“And” between values parts separate entries of the source, which are not always exact repeats. Equal values may be shown once.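 Grown in 96-well plates, cells were treated for 48 hours with each compound at five concentrations. Insufficient inhibition: endpoint recorded as highest concentration tested. Abbreviation: GI50, concentration required for 50% inhibition of growth. TGI is the concentration that stops growth completely.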 Where only a bound is given, the exact number is not on record here.

As to `CC(=O)Nc1ccc(/C=C/C(=O)c2sc(-c3cccnc3)nc2C)cc1`, the TGI with HCT-15 colon, in the experiment with A498 renal, in the experiment with HL-60(TB) leukemia, in the experiment with EKVX NSCLC, in the experiment with SF-268 CNS and with COLO 205 colon was more than 100 µM each time. Moreover, the TGI in the experiment on CAKI-1 renal and in the experiment with MALME-3M melanoma was more than 100 µM each time.

In the case of `C=C(C)[C@H]1CC[C@@]2(C)C(C1)[C@H](C)CC[C@@H]2O` (some centres not stated), the TGI in the experiment with HCT-15 colon, with A498 renal, with EKVX NSCLC, in the experiment on SF-268 CNS, in the experiment on SNB-19 CNS and with COLO 205 colon was more than 100 µM in each case. The TGI in the experiment with CAKI-1 renal and with MALME-3M melanoma was more than 100 µM in each case.

With `COC1CCC(OS(C)(=O)=O)C(CO)O1` (configuration not stated), the TGI in the experiment with HCT-15 colon, in the experiment with HL-60(TB) leukemia, with EKVX NSCLC and in the experiment with MALME-3M melanoma was more than 100 µM throughout.

Consider `CCN(CC)CCCNc1nccc2c(C)c3c(cc12)c1cnccc1n3C`, for which the TGI was determined as 0.779 µM in the experiment with HCT-15 colon; 2.61 µM in the experiment with A498 renal; 1.52 µM in the experiment with EKVX NSCLC; 1.69 µM with SF-268 CNS; 1.51 µM with SNB-19 CNS; 1.4 µM with COLO 205 colon. Moreover, the TGI in the experiment with CAKI-1 renal was 1.03 µM.

`COc1cc2cc(OC(C)=O)c3cc4c(cc3c2c(OC)c1OC)OCO4`: the TGI with HCT-15 colon, in the experiment with A498 renal, in the experiment with HL-60(TB) leukemia, in the experiment with EKVX NSCLC, with SF-268 CNS and with SNB-19 CNS was more than 100 µM each time. For the same compound, the TGI in the experiment on COLO 205 colon and in the experiment on MALME-3M melanoma was more than 100 µM each time.

Turning to `O=C1[C@H]2ON(c3ccccc3)C(c3ccc([N+](=O)[O-])cc3)[C@H]2C(=O)N1c1ccc(Cc2ccc(N3C(=O)[C@@H]4ON(c5ccccc5)C(c5ccc([N+](=O)[O-])cc5)[C@@H]4C3=O)cc2)cc1` (some centres not stated), the TGI in the experiment with HCT-15 colon, in the experiment with A498 renal, with HL-60(TB) leukemia, in the experiment on EKVX NSCLC, with SF-268 CNS and in the experiment with SNB-19 CNS was more than 100 µM each time. For the same compound, the TGI in the experiment with COLO 205 colon, in the experiment with CAKI-1 renal and with MALME-3M melanoma was more than 100 µM throughout.

Turning to `COC(=O)[C@@H]1c2cc3c(c(O)c2[C@@H](OC2OC(C)C(OC)C(C)(OC)C2OC)C[C@]1(C)O)C(=O)c1c(O)cc2c(c1C3=O)O[C@H]1O[C@]2(C)[C@H](O)[C@@H](N(C)C)[C@@H]1O` (some centres not stated), the GI50 in the experiment with HCT-15 colon is 0.117 µM; in the experiment with EKVX NSCLC, 0.103 µM. In addition, the TGI was 1.14 µM with HCT-15 colon; 0.0162 µM with A498 renal; 0.107 µM in the experiment with HL-60(TB) leukemia; 0.329 µM and 0.135 µM with SF-268 CNS; 11.1 µM with SNB-19 CNS; 0.0351 µM in the experiment with COLO 205 colon. The TGI with MALME-3M melanoma was 0.0666 µM and 0.0545 µM.

With `C=CSCCC(N)C(=O)O` (configuration not stated), the TGI in the experiment on HCT-15 colon, in the experiment with A498 renal, with HL-60(TB) leukemia, in the experiment with EKVX NSCLC, in the experiment with SF-268 CNS and in the experiment on SNB-19 CNS was more than 100 µM throughout. The TGI in the experiment with COLO 205 colon, with CAKI-1 renal and in the experiment with MALME-3M melanoma was more than 100 µM in each case.

For the compound `CC1=N/C(=C/c2ccc3c(c2)OCO3)C(=O)O1`, the TGI with HCT-15 colon, with A498 renal, in the experiment on EKVX NSCLC, with SF-268 CNS, in the experiment on SNB-19 CNS and in the experiment with COLO 205 colon was more than 100 µM throughout. The TGI with CAKI-1 renal and in the experiment on MALME-3M melanoma was more than 100 µM throughout.

As for `C=CCNC(=O)NCCCCC(NC(C)=O)C(=O)NCc1ccccc1` (configuration not stated), the TGI in the experiment with HCT-15 colon, in the experiment with A498 renal, with HL-60(TB) leukemia, with EKVX NSCLC, in the experiment with SF-268 CNS and in the experiment with SNB-19 CNS was more than 100 µM each time. Moreover, the TGI with COLO 205 colon, in the experiment on CAKI-1 renal and in the experiment on MALME-3M melanoma was more than 100 µM throughout.

`O=C(C(=O)c1cc2ccccc2[nH]1)c1cc2ccccc2[nH]1`: the TGI with HCT-15 colon, in the experiment on A498 renal, with HL-60(TB) leukemia, in the experiment with EKVX NSCLC, in the experiment with SF-268 CNS and in the experiment on SNB-19 CNS was more than 347 µM each time. The TGI in the experiment with COLO 205 colon, with CAKI-1 renal and in the experiment on MALME-3M melanoma was more than 347 µM throughout.

With `CC1Cc2c(Cl)ncnc2N(C)c2ccc(Cl)cc21` (configuration not stated), the GI50 with HCT-15 colon is 0.331 µM; in the experiment on A498 renal, 0.24 µM; in the experiment on HL-60(TB) leukemia, 0.403 µM; in the experiment with EKVX NSCLC it was 0.299 µM; with SF-268 CNS, 0.319 µM; in the experiment with SNB-19 CNS, 0.636 µM. Also, the values for the GI50 in the experiment on COLO 205 colon, in the experiment on CAKI-1 renal and in the experiment on MALME-3M melanoma were 0.19 µM, 0.348 µM and 0.276 µM, respectively. Moreover, the TGI is more than 100 µM in the experiment with HCT-15 colon; 0.547 µM with A498 renal; more than 100 µM in the experiment on HL-60(TB) leukemia; 9.73 µM with EKVX NSCLC; 18.2 µM in the experiment on SF-268 CNS; more than 100 µM in the experiment on SNB-19 CNS. The TGI in the experiment with COLO 205 colon is 0.369 µM; in the experiment with CAKI-1 renal, more than 100 µM; in the experiment on MALME-3M melanoma it was 3.67 µM.

For the compound `Cc1cnc2ccc(C)c([N+](=O)[O-])c2c1NCCCN(C)C`, the TGI in the experiment with HCT-15 colon, with HL-60(TB) leukemia, with EKVX NSCLC, in the experiment on SF-268 CNS, in the experiment on SNB-19 CNS and with COLO 205 colon was more than 100 µM in each case. Also, the TGI in the experiment on CAKI-1 renal and in the experiment with MALME-3M melanoma was more than 100 µM each time.

Turning to `C=C(CCCCC)CN1CCCC1C(C)=O` (configuration not stated), the TGI is more than 100 µM with HCT-15 colon; more than 93.5 µM with A498 renal; 19.7 µM in the experiment with HL-60(TB) leukemia; more than 100 µM in the experiment with EKVX NSCLC; more than 100 µM in the experiment on SF-268 CNS; more than 100 µM in the experiment on SNB-19 CNS. The TGI in the experiment with COLO 205 colon was 32.4 µM; in the experiment with CAKI-1 renal it was more than 92.3 µM; in the experiment with MALME-3M melanoma, more than 100 µM.

With `NCCSSCc1ccccc1CSSCCN`, the TGI was more than 100 µM with HCT-15 colon; more than 100 µM in the experiment on A498 renal; 29.6 µM with HL-60(TB) leukemia; more than 100 µM with EKVX NSCLC; more than 100 µM in the experiment on SF-268 CNS; more than 100 µM in the experiment on SNB-19 CNS. In addition, the TGI with COLO 205 colon, in the experiment on CAKI-1 renal and in the experiment with MALME-3M melanoma was more than 100 µM each time.
